ChEMBL document CHEMBL2375321, “Discovery of 3,3'-diindolylmethanes as potent antileishmanial agents” (Eur J Med Chem, 2013)
≈ marks a conversion by molar mass, not a printed value. Calls of active or inactive are those of the source. Unless noted, no cut-off for these calls is given here.

Tests used:
[1] = tested on: Mycobacterium intracellulare; test: Antibacterial activity against Mycobacterium intracellulare ATCC 23068 by alamar blue assay; assay type: functional, organism-based
Staphylococcus aureus [2] = test: Antibacterial activity against Staphylococcus aureus ATCC 29213 by CLSI method; assay type: functional, organism-based
Cryptococcus neoformans = test: Antifungal activity against Cryptococcus neoformans ATCC 90113 by CLSI method; assay type: functional, organism-based
Staphylococcus aureus [3] = test: Antibacterial activity against methicillin-resistant Staphylococcus aureus ATCC 33591 by CLSI method; assay type: functional, organism-based; conditions: for IC50: read-out: IC50
Aspergillus fumigatus = test: Antifungal activity against Aspergillus fumigatus ATCC 204305 by CLSI method; assay type: functional, organism-based
Candida albicans = test: Antifungal activity against Candida albicans ATCC 90028 by CLSI method; assay type: functional, organism-based
Vero = test: Cytotoxicity against african green monkey Vero cells up to 4.6 ug/ml after 48 hrs by neutral red assay; assay type: cell-based; conditions: chlorocebus sabaeus
Leishmania donovani [4] = test: Antileishmanial activity against axenic amastigote of Leishmania donovani after 72 hrs by alamar blue assay; assay type: functional, organism-based; conditions: Leishmania donovani, 72 h; for IC50: read-out: IC50
Leishmania donovani [5] = test: Antileishmanial activity against promastigote of Leishmania donovani after 72 hrs by alamar blue assay; assay type: functional, organism-based; conditions: for IC50: read-out: IC50
[6] = Staphylococcus aureus, ATCC 33591

| Compound | IC50 [1] | MBC [1] | MIC [1] | IC50 (Staphylococcus aureus [2]) | MBC (Staphylococcus aureus [2]) | MIC (Staphylococcus aureus [2]) | IC50 (Cryptococcus neoformans) | MFC (Cryptococcus neoformans) | MIC (Cryptococcus neoformans) | MBC (Staphylococcus aureus [3]) | MIC (Staphylococcus aureus [3]; [6]) | IC50 (Staphylococcus aureus [3]; [6]) | Activity (Aspergillus fumigatus) | Activity (Candida albicans) | Activity (Vero) | IC90 (Leishmania donovani [4]) | IC50 (Leishmania donovani [4]) | IC90 (Leishmania donovani [5]; Leishmania donovani, 72 h) | IC50 (Leishmania donovani [5]; Leishmania donovani, 72 h) | further results |
| --- | --- | --- | --- | --- | --- | --- | --- | --- | --- | --- | --- | --- | --- | --- | --- | --- | --- | --- | --- | --- |
| COc1ccc2[nH]cc(C(c3cc(F)cc(F)c3)c3c[nH]c4ccc(OC)cc34)c2c1 | Not Active | inactive | inactive | 4.05 µM | inactive | 11.7 µM (≈ 4.9 µg/mL) | 18.4 µM | inactive | 47.9 µM (≈ 20 µg/mL) | inactive | 11.7 µM (≈ 4.9 µg/mL) | 6.89 µM | inactive | inactive | Non-toxic | 78.7 µM | 49.6 µM | 65.3 µM | 26.8 µM | – |
| Oc1ccc(C(c2c[nH]c3ccccc23)c2c[nH]c3ccccc23)cc1 | Not Active | inactive | inactive | 10.5 µM | inactive | 29.6 µM (≈ 10 µg/mL) | 18.9 µM | 59.2 µM (≈ 20 µg/mL) | 29.6 µM (≈ 10 µg/mL) | inactive | 59.2 µM (≈ 20 µg/mL) | 17.8 µM | inactive | inactive | Non-toxic | 88.9 µM | 51.3 µM | 106 µM | 92.8 µM | – |
| Oc1ccc(C(c2c[nH]c3ccc(I)cc23)c2c[nH]c3ccc(I)cc23)cc1 | Not Active | inactive | inactive | 2.1 µM | 33.9 µM (≈ 20 µg/mL) | 4.24 µM (≈ 2.5 µg/mL) | 1.8 µM | – | – | – | 2.12 µM (≈ 1.25 µg/mL) | 1.15 µM | inactive | inactive | Non-toxic | 52.5 µM | 39.8 µM | 53.2 µM | 19.1 µM | MBC (Staphylococcus aureus [3]; [6]): 10 µM (≈ 5.9 µg/mL) |
| Brc1cccc(C(c2c[nH]c3ccccc23)c2c[nH]c3ccccc23)c1 | Not Active | inactive | inactive | 3.75 µM | inactive | 12.5 µM (≈ 5.02 µg/mL) | 5.33 µM | 12.5 µM (≈ 5.02 µg/mL) | 12.5 µM (≈ 5.02 µg/mL) | inactive | 12.5 µM (≈ 5.02 µg/mL) | 6.3 µM | inactive | inactive | Non-toxic | 75.6 µM | 35.9 µM | 59.4 µM | 27.4 µM | – |
| c1csc(C(c2c[nH]c3ccccc23)c2c[nH]c3ccccc23)c1 | Not Active | inactive | inactive | 9.15 µM | inactive | 15.2 µM (≈ 4.99 µg/mL) | 18.9 µM | 30.5 µM (≈ 10 µg/mL) | 30.5 µM (≈ 10 µg/mL) | inactive | – | 13.5 µM | inactive | inactive | Non-toxic | 101 µM | 70.2 µM | – | 100 µM | MIC (Staphylococcus aureus [3]): inactive; IC90 (Leishmania donovani [5]): inactive |
| O=[N+]([O-])c1ccc(C(c2c[nH]c3ccccc23)c2c[nH]c3ccccc23)o1 | – | inactive | inactive | 12 µM | 28 µM (≈ 10 µg/mL) | 28 µM (≈ 10 µg/mL) | 29.6 µM | inactive | inactive | inactive | 14 µM (≈ 5 µg/mL) | 8.54 µM | inactive | inactive | Non-toxic | 41.8 µM | 31.5 µM | 12.2 µM | 6.61 µM | IC50 ([1]; Mycobacterium intracellulare, ATCC 23068, read-out: IC50): 52.9 µM |
